The values that follow come from ChEMBL document CHEMBL4028869, “Synthesis and Bioevaluation of Macrocycle-Polyamine Conjugates as Cell Migration Inhibitors” (J Med Chem, 2017).

Data set [1] can be described thus: Antiproliferative activity against human L3.6p1 cells after 48 hrs in presence of amine oxidase inhibitor aminoguanidine by MTS assay. Format: functional, cell-based. To be noted: for IC50: Homo sapiens, L3.6p1, 48 h. For orientation: Formazan colour is commonly taken as a measure of viable cells.
Data set [2] in a line: Selectivity ratio of IC50 for CHO-MG cells to IC50 for PTS in CHO cells. Details: species or system Cricetulus griseus.
A short description of data set [3]: Modulation of sphingomyelin pool in human L3.6p1 cells assessed as N18:0 level per mg protein at 500 nM after 48 hrs (reference value: 0.19 +/- 0.01 nmol). In kind it is functional.
The nature of data set [4]: Modulation of sphingomyelin pool in human L3.6p1 cells assessed as N19:0 level per mg protein at 500 nM after 48 hrs (reference value: 0.01 nmol). In kind it is functional.
The nature of data set [5]: Modulation of sphingomyelin pool in human L3.6p1 cells assessed as N20:1 level per mg protein at 500 nM after 48 hrs (reference value: 0.02 nmol). Format: functional.
Data set [6] is described as follows: Modulation of sphingomyelin pool in human L3.6p1 cells assessed as N16:0 level per mg protein at 500 nM after 48 hrs (reference value: 2.60 +/- 0.06 nmol). Format: functional.
The species named for data set [7] is Mus musculus. The data set is described as follows: Increase in SGMS activity in mouse PancO2 cell lysates assessed as induction of NBD-sphingomyelin production at 0.5 uM using C12-NBD-ceramide substrate after 72 hrs by TLC relative to control.
Data set [8] can be described thus: Modulation of ceramide pool in human L3.6p1 cells assessed as N24:1 level per mg protein at 500 nM after 48 hrs (reference value: 0.37 +/- 0.06 nmol). Format: functional.
The nature of data set [9]: Antimigratory activity against human L3.6p1 cells at 0.5 uM after 24 hrs in presence of amine oxidase inhibitor aminoguanidine by scratch assay relative to control. Format: functional. Particulars: L3.6p1, 24 h.
Data set [10] can be described thus: Antimigratory activity against human L3.6p1 cells at 1 uM after 24 hrs in presence of amine oxidase inhibitor aminoguanidine by scratch assay relative to control. Format: functional. Particulars: L3.6p1, 24 h.
Data set [11] can be described thus: Modulation of sphingomyelin pool in human L3.6p1 cells assessed as N24:2 level per mg protein at 500 nM after 48 hrs (reference value: 0.30 +/- 0.01 nmol). Format: functional.
Data set [12] can be described thus: Modulation of sphingomyelin pool in human L3.6p1 cells assessed as total sphingomyelin level per mg protein at 500 nM after 48 hrs (reference value: 5.91 +/- 0.11 nmol). In kind it is functional.
Data set [13] in a line: Modulation of sphingomyelin pool in human L3.6p1 cells assessed as N15:0 level per mg protein at 500 nM after 48 hrs (reference value: 0.12 nmol). In kind it is functional.
Data set [14] in a line: Modulation of sphingomyelin pool in human L3.6p1 cells assessed as N25:0 level per mg protein at 500 nM after 48 hrs (reference value: 0.01 nmol). In kind it is functional.
Data set [15] in a line: Modulation of sphingomyelin pool in human L3.6p1 cells assessed as N26:1 level per mg protein at 500 nM after 48 hrs (reference value: 0.02 nmol). In kind it is functional.
A short description of data set [16]: Modulation of sphingomyelin pool in human L3.6p1 cells assessed as N17:0 level per mg protein at 500 nM after 48 hrs (reference value: 0.05 +/- 0.01 nmol). In kind it is functional.
The species named for data set [17] is Mus musculus. The data set is described as follows: Increase in SGMS activity in mouse PancO2 cell lysates assessed as induction of NBD-sphingomyelin production at 1 uM using C12-NBD-ceramide substrate after 72 hrs by TLC relative to control.
The nature of data set [18]: Modulation of sphingomyelin pool in human L3.6p1 cells assessed as N24:1 level per mg protein at 500 nM after 48 hrs (reference value: 1.07 +/- 0.03 nmol). In kind it is functional.
The nature of data set [19]: Modulation of sphingomyelin pool in human L3.6p1 cells assessed as N14:0 level per mg protein at 500 nM after 48 hrs (reference value: 0.13 +/- 0.01 nmol). In kind it is functional.
A short description of data set [20]: Modulation of sphingomyelin pool in human L3.6p1 cells assessed as N21:0 level per mg protein at 500 nM after 48 hrs (reference value: 0.03 nmol). Format: functional.
Data set [21] is described as follows: Modulation of sphingomyelin pool in human L3.6p1 cells assessed as N18:1 level per mg protein at 500 nM after 48 hrs (reference value: 0.07 nmol). In kind it is functional.
Data set [22] is described as follows: Modulation of sphingomyelin pool in human L3.6p1 cells assessed as N22:1 level per mg protein at 500 nM after 48 hrs (reference value: 0.17 +/- 0.01 nmol). Format: functional.
The nature of data set [23]: Modulation of sphingomyelin pool in human L3.6p1 cells assessed as N24:0 level per mg protein at 500 nM after 48 hrs (reference value: 0.32 +/- 0.01 nmol). In kind it is functional.
The nature of data set [24]: Modulation of sphingomyelin pool in human L3.6p1 cells assessed as N23:1 level per mg protein at 500 nM after 48 hrs (reference value: 0.10 nmol). Format: functional.
Data set [25] is described as follows: Modulation of sphingomyelin pool in human L3.6p1 cells assessed as N23:0 level per mg protein at 500 nM after 48 hrs (reference value: 0.07 nmol). In kind it is functional.
Data set [26] is described as follows: Modulation of sphingomyelin pool in human L3.6p1 cells assessed as N23:2 level per mg protein at 500 nM after 48 hrs (reference value: 0.01 nmol). Format: functional.
Data set [27] is described as follows: Modulation of sphingomyelin pool in human L3.6p1 cells assessed as N22:2 level per mg protein at 500 nM after 48 hrs (reference value: 0.01 nmol). Format: functional.
Data set [28] can be described thus: Modulation of sphingomyelin pool in human L3.6p1 cells assessed as N20:0 level per mg protein at 500 nM after 48 hrs (reference value: 0.06 +/- 0.01 nmol). In kind it is functional.
A short description of data set [29]: Modulation of sphingomyelin pool in human L3.6p1 cells assessed as N16:1 level per mg protein at 500 nM after 48 hrs (reference value: 0.28 +/- 0.01 nmol). Format: functional.
A short description of data set [30]: Modulation of ceramide pool in human L3.6p1 cells assessed as total ceramide level per mg protein at 500 nM after 48 hrs (reference value: 0.62 +/- 0.10 nmol). Format: functional.
Data set [31] can be described thus: Modulation of sphingomyelin pool in human L3.6p1 cells assessed as N22:0 level per mg protein at 500 nM after 48 hrs (reference value: 0.23 +/- 0.01 nmol). Format: functional.
Data set [32] can be described thus: Modulation of ceramide pool in human L3.6p1 cells assessed as N16:0 level per mg protein at 500 nM after 48 hrs (reference value: 0.08 +/- 0.01 nmol). In kind it is functional.
A short description of data set [33]: Modulation of sphingomyelin pool in human L3.6p1 cells assessed as N25:1 level per mg protein at 500 nM after 48 hrs (reference value: 0.02 +/- 0.01 nmol). Format: functional.
Data set [34] in a line: Modulation of ceramide pool in human L3.6p1 cells assessed as N24:0 level per mg protein at 500 nM after 48 hrs (reference value: 0.16 +/- 0.04 nmol). In kind it is functional.
The next data set deals with CHO-MG. In words: Cytotoxicity against CHO-MG cells assessed as reduction in cell viability after 48 hrs in presence of aminoguanidine by MTS assay. In kind it is cell-based. To be noted: Cricetulus griseus.
Data set [35] is described as follows: Substrate activity at PTS in CHO cells assessed as reduction in cell viability after 48 hrs in presence of aminoguanidine by MTS assay. In kind it is cell-based. To be noted: Cricetulus griseus.
Data set [36] is described as follows: Solubility in water. Particulars: buffer. Format: physicochemical.

The IC50 is the concentration needed to halve the response being measured. As usually defined, the inhibition is the change of the read-out against control, counted positive when it falls. On to `Cl.Cl.Cl.NCCCNCCCN1CCCCCCCCCCCCCC1`, for which the IC5 in [1] came to 0.6 µM. Besides, the IC50 in data set [1] worked out at 0.99 µM. Moreover, the “Ratio IC50” value in [2] came to 1. For the same compound, the Activity was 0.32 nmol in data set [3]; 0.01 nmol in data set [4]; 0.03 nmol in data set [5]; 3.26 nmol in [6]; 89% in the data set listed under Mus musculus [7]; 0.51 nmol in data set [8]. The Activity in [11] was found to be 0.41 nmol; in [12] it was 7.84 nmol; in [13], 0.14 nmol; in [14] it was 0.03 nmol; in data set [15] it was 0.04 nmol; in [16], 0.06 nmol. Besides, the Activity in the data set listed under Mus musculus [17] amounted to 75%; in data set [18], 1.49 nmol; in [19], 0.14 nmol; in data set [20], 0.05 nmol; in [21], 0.11 nmol; in data set [22], 0.27 nmol. The Activity worked out at 0.39 nmol in data set [23]; 0.14 nmol in data set [24]; 0.1 nmol in [25]; 0.01 nmol in data set [26]; 0.02 nmol in data set [27]; 0.1 nmol in data set [28]. Moreover, the Activity in [29] was found to be 0.33 nmol; in data set [30] it was 0.89 nmol; in data set [31], 0.35 nmol; in data set [32], 0.17 nmol; in [33], 0.03 nmol; in [34], 0.2 nmol. Besides, the inhibition at 0.5 µM in data set [9] amounted to 20.6%. Moreover, the inhibition at 1 µM in [10] was 39.8%.

`OCC1CCCCCCCCCCCCCC1`: the IC5 in data set [1] was 8.4 µM. Moreover, the IC50 in data set [1] was 42 µM; with CHO-MG, above 100 µM; in [35], above 100 µM. For the same compound, the inhibition at 1 µM in [10] was -37.2%. In [36], the solubility result was “Insoluble”.
